In brackets after ≈: the same amount, converted by molar mass.
Columns and labels:
[1] = target: Sodium-dependent serotonin transporter (Homo sapiens, UniProt P31645); experiment: Displacement of [3H]Imipramine from human 5-HT transporter expressed in HEK-293 cell membranes after 30 mins
[2] = target: 5-hydroxytryptamine receptor 7 (Homo sapiens, UniProt P34969); experiment: Displacement of [3H]LSD from human 5-HT7 receptor expressed in CHO-K1 cell membranes after 60 mins
[3] = tested on: Mus musculus; experiment: Antinarcotic activity in morphine-dependent C57BL/6 mouse assessed as inhibition of naloxone-induced jumping behavior in mouse at 5 mg/kg , ip after 30 mins relative to control; assay type: functional; conditions: C57BL/6, ip, 0.5 h
[4] = target: 5-hydroxytryptamine receptor 6 (Homo sapiens, UniProt P50406); experiment: Displacement of [3H]LSD from human 5-HT6 receptor expressed in CHO-K1 cell membranes after 60 mins
Sequence of 5-hydroxytryptamine receptor 6 (P50406 whole entry): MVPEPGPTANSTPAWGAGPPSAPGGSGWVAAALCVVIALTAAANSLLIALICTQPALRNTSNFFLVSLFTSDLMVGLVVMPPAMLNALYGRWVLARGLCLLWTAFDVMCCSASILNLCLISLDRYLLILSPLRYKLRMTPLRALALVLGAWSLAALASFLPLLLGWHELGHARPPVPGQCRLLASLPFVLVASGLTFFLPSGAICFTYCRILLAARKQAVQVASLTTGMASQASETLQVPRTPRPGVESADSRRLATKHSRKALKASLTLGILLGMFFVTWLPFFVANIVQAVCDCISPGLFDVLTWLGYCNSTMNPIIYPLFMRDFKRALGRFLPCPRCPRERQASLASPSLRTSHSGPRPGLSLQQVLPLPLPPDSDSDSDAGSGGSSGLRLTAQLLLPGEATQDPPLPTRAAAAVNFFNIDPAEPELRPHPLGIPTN

[5] = tested on: Hepatitis B virus; experiment: Antiviral activity against Hepatitis B virus infected in human HepG2.2.15 cells assessed as reduction in HBeAg secretion by ELISA; assay type: functional, organism-based
[6] = tested on: HepG2 2.2.15; experiment: Cytotoxicity against human HepG2(2.2.15) cells after 24 hrs by MTT assay; assay type: functional; conditions: HepG2 2.2.15, 24 h
[7] = tested on: Hepatitis B virus; experiment: Antiviral activity against Hepatitis B virus infected in human HepG2.2.15 cells assessed as reduction in HBsAg secretion by ELISA; assay type: functional, organism-based
[8] = Growth inhibition of HUVEC at 5 uM relative to control; assay type: cell-based; conditions: human, HUVEC cells; read-out: GI
[9] = Growth inhibition of HUVEC; assay type: cell-based; conditions: human, HUVEC cells
[10] = target: T1, Bifunctional epoxide hydrolase 2 (Homo sapiens) (UniProt P34913); experiment: Competitive inhibition of soluble epoxide hydrolase (unknown origin) at 100 uM relative to control
T1 sequence (whole entry): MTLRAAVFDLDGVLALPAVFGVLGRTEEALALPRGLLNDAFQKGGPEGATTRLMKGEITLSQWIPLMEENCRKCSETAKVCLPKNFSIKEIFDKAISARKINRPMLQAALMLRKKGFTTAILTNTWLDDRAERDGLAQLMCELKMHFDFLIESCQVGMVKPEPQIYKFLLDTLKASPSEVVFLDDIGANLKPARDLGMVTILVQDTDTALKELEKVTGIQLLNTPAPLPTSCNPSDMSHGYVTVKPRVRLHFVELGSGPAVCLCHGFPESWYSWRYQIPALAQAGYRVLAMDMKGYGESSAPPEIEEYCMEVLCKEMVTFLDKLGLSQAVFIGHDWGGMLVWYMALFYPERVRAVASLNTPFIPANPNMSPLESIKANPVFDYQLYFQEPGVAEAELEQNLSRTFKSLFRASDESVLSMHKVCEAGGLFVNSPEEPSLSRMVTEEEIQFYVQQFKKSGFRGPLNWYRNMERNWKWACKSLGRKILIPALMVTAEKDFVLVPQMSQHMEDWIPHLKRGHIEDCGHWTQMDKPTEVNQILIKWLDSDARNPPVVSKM

[11] = target: T2, Bifunctional epoxide hydrolase 2 (Homo sapiens, UniProt P34913); experiment: Competitive inhibition of soluble epoxide hydrolase (unknown origin)
T2 sequence (P34913 whole entry): T1 sequence (whole entry)

[12] = tested on: Candida tropicalis; experiment: Antifungal activity against Candida tropicalis ATCC 750 after 24 hrs by CLSI broth microdilution method; assay type: functional, organism-based; conditions: ATCC 750, 24 h
[13] = Selectivity index, ratio of CC50 for BHK21 cells to IC50 for Candida parapsilosis ATCC 22019; assay type: toxicity; conditions: hamster, read-out: Ratio CC50/IC50
[14] = Selectivity index, ratio of CC50 for BHK21 cells to IC50 for Candida tropicalis ATCC 750; assay type: toxicity; conditions: hamster, read-out: Ratio CC50/IC50
[15] = tested on: Candida parapsilosis; experiment: Antifungal activity against Candida parapsilosis ATCC 22019 after 24 hrs by CLSI broth microdilution method; assay type: functional, organism-based; conditions: Lodderomyces parapsilosis, ATCC 22019, 24 h
[16] = Selectivity index, ratio of CC50 for BHK21 cells to IC50 for Candida glabrata ATCC 90030; assay type: toxicity; conditions: hamster, read-out: Ratio CC50/IC50
[17] = tested on: Staphylococcus aureus; experiment: Potency index, ratio of piplartine IC50 to test compound IC50 for Staphylococcus aureus ATCC 6538; assay type: functional
[18] = Selectivity index, ratio of CC50 for BHK21 cells to IC50 for Candida albicans ATCC 10231; assay type: toxicity; conditions: hamster, read-out: Ratio CC50/IC50
[19] = tested on: Staphylococcus aureus; experiment: Antibacterial activity against Staphylococcus aureus ATCC 6538 after 24 hrs by CLSI broth microdilution method; assay type: functional, organism-based; conditions: ATCC 6538, 24 h
[20] = Selectivity index, ratio of CC50 for BHK21 cells to IC50 for Staphylococcus aureus ATCC 6538; assay type: toxicity; conditions: hamster, read-out: Ratio CC50/IC50
[21] = Cytotoxicity against BHK21 cells assessed as reduction in cell viability after 48 hrs by MTT assay; assay type: cell-based, Mesocricetus auratus, BHK-21; conditions: hamster
[22] = tested on: Candida albicans; experiment: Antifungal activity against Candida albicans ATCC 10231 after 24 hrs by CLSI broth microdilution method; assay type: functional, organism-based; conditions: ATCC 10231, 24 h
[23] = tested on: Nakaseomyces glabratus; experiment: Antifungal activity against Candida glabrata ATCC 90030 after 24 hrs by CLSI broth microdilution method; assay type: functional, organism-based; conditions: ATCC 90030, 24 h
[24] = target: Platelet-activating factor receptor (Homo sapiens) (UniProt P25105); experiment: Inhibition of PAF receptor (unknown origin) assessed as reduction in receptor to rabbit platelet binding at 20 ug/ml relative to control
Sequence of Platelet-activating factor receptor (Homo sapiens) (P25105 whole entry): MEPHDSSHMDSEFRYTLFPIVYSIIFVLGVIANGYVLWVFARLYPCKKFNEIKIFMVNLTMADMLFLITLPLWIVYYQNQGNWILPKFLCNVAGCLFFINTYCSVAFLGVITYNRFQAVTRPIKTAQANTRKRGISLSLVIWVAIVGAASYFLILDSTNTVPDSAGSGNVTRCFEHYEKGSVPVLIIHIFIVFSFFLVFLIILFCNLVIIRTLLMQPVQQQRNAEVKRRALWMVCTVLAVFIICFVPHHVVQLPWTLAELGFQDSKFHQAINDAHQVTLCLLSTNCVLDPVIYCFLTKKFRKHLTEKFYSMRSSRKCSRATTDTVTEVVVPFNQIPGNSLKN

[25] = tested on: Platelet; experiment: Antiplatelet activity in rabbit platelet rich plasma assessed as inhibition of ADP-induced platelet aggregation at 30 ug/ml relative to control; assay type: functional; conditions: Oryctolagus cuniculus
[26] = tested on: Platelet; experiment: Antiplatelet activity in rabbit platelet rich plasma assessed as inhibition of PAF-induced platelet aggregation at 50 ug/ml relative to control; assay type: functional; conditions: Oryctolagus cuniculus
[27] = tested on: Platelet; experiment: Antiplatelet activity in rabbit platelet rich plasma assessed as inhibition of PAF-induced platelet aggregation at 150 uM preincubated for 3 mins followed by PAF addition measured after 10 mins relative to control; assay type: functional; conditions: Oryctolagus cuniculus
[28] = tested on: Platelet; experiment: Antiplatelet activity in rabbit platelet rich plasma assessed as inhibition of PAF-induced platelet aggregation at 300 uM preincubated for 3 mins followed by PAF addition measured after 10 mins relative to control; assay type: functional; conditions: Oryctolagus cuniculus
[29] = tested on: Platelet; experiment: Antiplatelet activity in rabbit platelet rich plasma assessed as inhibition of arachidonic acid-induced platelet aggregation at 300 uM preincubated for 3 mins followed by arachidonic acid addition measured after 10 mins relative to control; assay type: functional; conditions: Oryctolagus cuniculus
[30] = tested on: Platelet; experiment: Antiplatelet activity in rabbit platelet rich plasma assessed as inhibition of arachidonic acid-induced platelet aggregation at 150 uM preincubated for 3 mins followed by arachidonic acid addition measured after 10 mins relative to control; assay type: functional; conditions: Oryctolagus cuniculus
[31] = tested on: Platelet; experiment: Antiplatelet activity in rabbit platelet rich plasma assessed as inhibition of collagen-induced platelet aggregation at 300 uM preincubated for 3 mins followed by collagen addition measured after 10 mins relative to control; assay type: functional; conditions: Oryctolagus cuniculus
[32] = tested on: Platelet; experiment: Antiplatelet activity in rabbit platelet rich plasma assessed as inhibition of collagen-induced platelet aggregation at 150 uM preincubated for 3 mins followed by collagen addition measured after 10 mins relative to control; assay type: functional; conditions: Oryctolagus cuniculus
[33] = Cytotoxicity against […] B16 cells; assay type: functional, cell-based
[34] = tested on: EL4; experiment: Antitumor activity against mouse EL4 cells by MTT assay
[35] = tested on: CPAE; experiment: Cytotoxic activity against cow CPAE cells by MTT assay; conditions: Bos taurus
[36] = tested on: Plasmodium falciparum; experiment: Antiplasmodial activity against blood form of chloroquine-resistant/mefloquine-sensitive Plasmodium falciparum W2 by histidine rich protein assay; assay type: functional, organism-based
[37] = tested on: Plasmodium falciparum; experiment: Antiplasmodial activity against blood form of chloroquine-resistant/mefloquine-sensitive Plasmodium falciparum W2 by [3H]-hypoxanthine incorporation method; assay type: functional, organism-based

Sequence of Sodium-dependent serotonin transporter (P31645 whole entry): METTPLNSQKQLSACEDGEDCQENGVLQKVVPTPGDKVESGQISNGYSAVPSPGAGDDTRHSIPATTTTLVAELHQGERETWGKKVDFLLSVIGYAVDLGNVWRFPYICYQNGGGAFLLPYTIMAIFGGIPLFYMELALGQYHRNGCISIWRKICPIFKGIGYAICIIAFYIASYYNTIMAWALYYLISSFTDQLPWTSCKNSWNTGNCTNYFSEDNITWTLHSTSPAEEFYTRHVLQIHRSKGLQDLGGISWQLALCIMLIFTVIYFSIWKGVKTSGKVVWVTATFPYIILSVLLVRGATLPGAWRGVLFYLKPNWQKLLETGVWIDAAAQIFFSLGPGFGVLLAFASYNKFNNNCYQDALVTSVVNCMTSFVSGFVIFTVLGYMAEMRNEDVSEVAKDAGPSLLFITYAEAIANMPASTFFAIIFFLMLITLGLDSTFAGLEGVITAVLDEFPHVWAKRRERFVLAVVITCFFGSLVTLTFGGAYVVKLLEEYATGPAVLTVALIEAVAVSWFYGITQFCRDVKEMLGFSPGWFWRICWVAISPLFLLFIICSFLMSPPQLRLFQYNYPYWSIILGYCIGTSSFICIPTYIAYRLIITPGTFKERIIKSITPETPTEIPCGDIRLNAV
Sequence of 5-hydroxytryptamine receptor 7 (P34969 whole entry): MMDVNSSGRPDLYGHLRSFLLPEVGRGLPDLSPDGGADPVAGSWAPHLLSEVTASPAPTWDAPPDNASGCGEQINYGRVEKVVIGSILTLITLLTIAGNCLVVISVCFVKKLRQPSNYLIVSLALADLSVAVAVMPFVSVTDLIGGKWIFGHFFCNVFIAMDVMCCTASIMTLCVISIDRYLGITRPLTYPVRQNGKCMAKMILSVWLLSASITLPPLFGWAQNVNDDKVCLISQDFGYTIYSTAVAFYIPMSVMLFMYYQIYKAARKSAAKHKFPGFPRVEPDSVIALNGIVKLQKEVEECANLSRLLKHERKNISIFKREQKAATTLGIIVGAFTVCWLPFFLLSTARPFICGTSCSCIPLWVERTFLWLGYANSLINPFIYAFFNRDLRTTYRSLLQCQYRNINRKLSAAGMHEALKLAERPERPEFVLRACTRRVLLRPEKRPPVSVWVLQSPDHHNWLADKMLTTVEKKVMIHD

SMILES: COc1cc(/C=C/C(=O)O)cc(OC)c1OC [SINAPIC ACID METHYL ETHER]
- IC50 [1]: > 10 µM

SMILES: CCCCCCCCCCNC(=O)/C=C/c1cc(OC)c(OC)c(OC)c1
- IC50 [2]: 5.6 µM
- IC50 [1]: 6.7 µM
- inhibition in vivo at 5 mg/kg [3]: 80%
- IC50 [4]: 5 µM

SMILES: COc1cc(/C=C/C(=O)ON=C2C3CC4CC(C3)CC2C4)cc(OC)c1OC
- IC50 [5]: 74.8 µM
- CC50 [6]: 507 µM
- IC50 [7]: 107 µM

SMILES: COc1cc(/C=C/C(=O)Nc2ccc(NC(=O)[C@@H](O)[C@H](N)CCc3ccccc3)cc2)cc(OC)c1OC
- inhibition at 5 µM [8]: > 98%
- GI50 [9]: 0.85 µM

SMILES: COc1cc(/C=C/C(=O)OC[C@H]2O[C@H](O[C@@]3(CO)O[C@H](CO)[C@@H](O)[C@@H]3OC(=O)/C=C/c3cc(OC)c(OC)c(OC)c3)[C@H](O)[C@@H](O)[C@@H]2O)cc(OC)c1O
- inhibition [10]: 97.4%
- IC50 [11]: 27.2 µM

SMILES: O=C(/C=C/c1ccccc1)NNC(=O)c1ccccc1
- IC50 [12]: 376 µM
- selectivity ratio [13]: 0.61
- selectivity ratio [14]: 0.61
- IC50 [15]: 376 µM
- selectivity ratio [16]: 0.61
- Ratio IC50 [17]: 3
- selectivity ratio [18]: 0.61
- IC50 [19]: 85.2 µM
- selectivity ratio [20]: 2.71
- CC50 at 48 h [21]: 232 µM
- IC50 [22]: 376 µM
- IC50 [23]: 376 µM

SMILES: COc1ccc(CCNC(=O)/C=C/c2cc(OC)c(OC)c(OC)c2)cc1
- inhibition [24]: 19%
- inhibition at 30 µg/mL [25]: 29.1%
- inhibition at 50 µg/mL [26]: 39.3%

SMILES: COc1cc(/C=C/C(=O)N2CC(C)CC(C)C2)cc(OC)c1OC (stereo not given)
- inhibition at 150 µM [27]: 56.9%
- inhibition at 300 µM [28]: 94.8%
- inhibition at 300 µM [29]: 100%
- inhibition at 150 µM [30]: 100%
- inhibition at 300 µM [31]: 98.6%
- inhibition at 150 µM [32]: 97.2%

SMILES: COc1cc2oc(=O)cc(COC(=O)/C=C/c3cc(OC)c(OC)c(OC)c3)c2cc1OC
- IC50 [33]: 6.74 µg/mL (≈ 14.8 µM)

SMILES: COc1cc(/C=C/C(=O)Nc2ccc(NC(=O)[C@@H](O)[C@H](N)CC3CCCCC3)cc2)cc(OC)c1OC
- inhibition at 5 µM [8]: > 98%
- GI50 [9]: 0.67 µM

SMILES: COc1cc(/C=C/C(=O)O[C@@H]2CC[C@]3(CO3)[C@@H]([C@@]3(C)O[C@@H]3CC=C(C)C)[C@@H]2OC)cc(OC)c1OC
- IC50 [34]: 0.15 µg/mL (≈ 0.298 µM)
- IC50 [35]: 0.03 µg/mL (≈ 0.0597 µM)

SMILES: COc1cc(/C=C/C(=O)OCC(=O)c2ccc(Cl)cc2)cc(OC)c1OC
- IC50 [36]: 128 µM
- IC50 [37]: 128 µM

Source: ChEMBL document CHEMBL4346712, “Research progress in the biological activities of 3,4,5-trimethoxycinnamic acid (TMCA) derivatives” (Eur J Med Chem, 2019)
